Format in all cases: cell-based
In one data set the test system is NF-κB. Put plainly: Measurement of NF-κB activation using THP1-Blue NF-κB cells (SEAP reporter, LPS as primary stimulus). Conditions: compound 5 μM + LPS, 20 hour incubation; two point normalized: compound 1 + LPS = 200%, LPS = 100%; mean. As to the method: THP1-Blue™ NF-κB cells were plated in 96-well plates at 10^5 cells/well in 100 μl RPMI supplemented with 10% fetal bovine serum (FBS, Omega Scientific, Inc., Tarzana, Calif.), 100 U/mL penicillin, 100 μg/ml streptomycin (Thermo Fisher Scientific) and Normocin (Invivogen). LPS was prepared in assay medium at a concentration of 20 μg/mL. Tested compounds were dissolved in DMSO at 1 mM as a stock solution and were further diluted in the LPS solution to a final concentration of 10 μM. 100 μL of this solution was then transferred to the plated cells to obtain a final concentration of LPS at 10 μg/mL and compound at 5 μM ([…]). The culture supernatants were harvested after a 20 hour incubation period, SEAP activity in the culture supernatants was determined by a colorimetric assay using QuantiBlue (Invivogen). Plate absorbance was read at 630 nm using a Tecan Infinite M200 plate reader (Männedorf, Switzerland). The SEAP concentration was directly proportional to NF-κB activity, which was 2-point normalized to yield activity of compound 1+LPS as 200% and activity for LPS as 100%.
Measurement of NF-κB Activation Using THP1-Blue NF-κB Cells. THP1-Blue NF-κB cells were plated in 96-well plates at 10^5 cells/well in 100 μL of RPMI supplemented with 10% fetal bovine serum (FBS, Omega Scientific, Inc., Tarzana, Calif.), 100 U/mL penicillin, 100 μg/mL streptomycin (Thermo Fisher Scientific), and Normocin (Invivogen). LPS was prepared in assay medium at a concentration of 20 μg/mL. Tested compounds were dissolved in DMSO at 1 mM as a stock solution and were further diluted in the LPS solution to a final concentration of 10 μM. 100 μL of this solution was then transferred to the plated cells to obtain a final concentration of LPS at 10 μg/mL and compound at 5 μM ([…]). The culture supernatants were harvested after a 20 hours incubation period. SEAP activity in the culture supernatants was determined by a colorimetric assay using QuantiBlue (Invivogen). Plate absorbance was read at 630 nm using a Tecan Infinite M200 plate reader (Mannedorf, Switzerland). The SEAP concentration was directly proportional to NF-κB activity, which was two-point normalized to yield activity of compound 1+LPS as 200% and activity for LPS as 100%.

In another data set the test system is ISRE. The data set can be described thus: Measurement of ISRE activity in ISRE-bla THP-1 cells (FRET, IFN-α as primary stimulus). The following applies: compound 5 μM + IFN-α 100 U/mL, 16 hours, two point normalized: compound 1 + IFN-α = 200%, IFN-α = 100%, mean; for activity at 5 µM: Homo sapiens, THP-1, read-out: ISRE % Activation. Here is the method:
ISRE-bla THP-1 cells were plated in 96-well plates at 5×10^4 cells/well in 50 μl RPMI supplemented with 10% dialyzed FBS (Atlanta Biologicals, Inc., GA), 0.1 mM nonessential amino acids, 1 mM sodium pyruvate, 100 U/mL penicillin and 100 μg/ml streptomycin. Type I IFN-α (R&D Systems, #11200-2) solution was prepared in assay medium at a concentration of 200 U/mL Tested compounds were dissolved in DMSO at 1 mM and were further diluted in the IFN-α solution to a final concentration of 10 μM. 50 μL of this solution was then transferred to the plated cells to obtain a final concentration of IFN-α at 100 U/mL and compound at 5 μM ([…]), The cells were incubated for 16 hours, after which 20 μL of 6×LiveBLAzer™ FRET B/G Substrate (CCF4-AM) mixture (prepared according to the manufacturer's instructions) was added to each well, Plates were incubated at room temperature in the dark for 3 hours. Fluorescence was measured on a Tecan Infinite M200 plate reader at an excitation wavelength of 405 nm, and emission wavelengths of 465 nm and 535 nm. Background values (cell free wells at the same fluorescence wavelength) were subtracted from the raw fluorescence intensity values and the emission ratios were calculated as the ratio of background subtracted fluorescence intensities at 465 nm to background subtracted fluorescence intensities at 535 nm. The ISRE activity values for these compounds were 2-point normalized to yield activity of compound 1+IFN-α as 200% and activity for IFN-α as 100%.
Measurement of ISRE Activity in ISRE-bla THP-1 Cells. ISREbla THP-1 cells were plated in 96-well plates at 5×10^4 cells/well in 50 μL of RPMI supplemented with 10% dialyzed FBS (Atlanta Biologicals, Inc., GA), 0.1 mM nonessential amino acids, 1 mM sodium pyruvate, 100 U/mL penicillin, and 100 μg/mL streptomycin. Type I IFN-α (R&D Systems, no. 11200-2) solution was prepared in assay medium at a concentration of 200 U/mL. Tested compounds were dissolved in DMSO at 1 mM and were further diluted in the IFN-α solution to a final concentration of 10 μM. 50 μL of this solution was then transferred to the plated cells to obtain a final concentration of IFN-α at 100 U/mL and compound at 5 μM ([…]). The cells were incubated for 16 hours, after which 20 μL of 6×LiveBLAzer FRET B/G substrate (CCF4-AM) mixture (prepared according to the manufacturer's instructions) was added to each well. Plates were incubated at room temperature in the dark for 3 hours. Fluorescence was measured on a Tecan Infinite M200 plate reader at an excitation wavelength of 405 nm and emission wavelengths of 465 and 535 nm. Background values (cell free wells at the same fluorescence wavelength) were subtracted from the raw fluorescence intensity values and the emission ratios were calculated as the ratio of background subtracted fluorescence intensities at 465 nm to background subtracted fluorescence intensities at 535 nm. The ISRE activity values for these compounds were two-point normalized to yield activity of compound 1+IFN-α as 200% and activity for IFN-α as 100%.

For another data set, the system named is THP-1 cells. The data set can be described thus: Cell viability assay (MTT). Conditions: compound 5 μM, 18 hours incubation; normalized to DMSO as 100%; mean. Here is the method: THP-1 cells were plated in 96-well plates (10^5 cells/well) in 100 μL RPMI supplemented with 10% FBS, 100 U/mL penicillin and 100 μg/ml streptomycin. Compounds were dissolved in DMSO at 1 mM stock solution and were further diluted to 10 μM in the assay medium. 100 μL of this solution was added to the cells to obtain a final compound concentration of 5 μM ([…]). After 18 hours incubation, a solution of MTT in assay media (0.5 mg/mL) was added to each well and further incubated for 4 to 6 hours, followed by addition of cell lysis buffer (15% w/v SDS and 0.12% v/v 12N HCl aqueous solution), incubated overnight, and then absorbance measured at 570 nm using 650 nm as reference using Tecan Infinite M200 plate reader.
Cell Viability Assay. THP-1 cells were plated in 96-well plates (10^5 cells/well) in 100 μL RPMI supplemented with 10% FBS, 100 U/mL penicillin, and 100 μg/mL streptomycin. Compounds were dissolved in DMSO at 1 mM stock solution and were further diluted to 10 μM in the assay medium. 100 μL of this solution was added to the cells to obtain a final compound concentration of 5 μM ([…]). After 18 h incubation, a solution of MTT in assay media (0.5 mg/mL) was added to each well and further incubated for 4-6 hours, followed by addition of cell lysis buffer (15% w/v SDS and 0.12% v/v 12 N HCl aqueous solution), incubation overnight, and then absorbance was measured at 570 nm using 650 nm as reference using Tecan Infinite M200 plate reader.

`CCOc1ccc(S(=O)(=O)Nc2cc(OC)c([N+](=O)[O-])cc2OC)cc1` [Compound 9, N-(2,5-dimethoxy-4-nitrophenyl)-4-ethoxybenzenesulfonamide]: the values for the activity at 5 µM in the data set on NF-κB and with ISRE were 133% and 110%, respectively. Besides, the “MTT % Viability” value in the data set on THP-1 cells turned out to be 79.2%.
As for `CCOc1ccc(S(=O)(=O)Nc2cc(OC)c(N)cc2OC)cc1` [Compound 10, N-(4-amino-2,5-dimethoxyphenyl)-4-ethoxybenzenesulfonamide], the results for the activity at 5 µM with NF-κB and with ISRE were 101% and 102%, respectively. Further, the “MTT % Viability” value with THP-1 cells is on record as 92.2%.
The matching figures for `CCCCOc1ccc(S(=O)(=O)Nc2cc(OC)c(Cl)cc2OC)cc1` [Compound 14, 4-Butoxy-N-(4-chloro-2,5-dimethoxyphenyl)benzenesulfonamide]: 101%, 106% and 95.3%.
With `COc1cc(NS(=O)(=O)c2ccc([N+](=O)[O-])cc2)c(OC)cc1Cl` [Compound 17, N-(4-chloro-2,5-dimethoxyphenyl)-4-nitrobenzenesulfonamide], the activity at 5 µM came to 101% in the data set with NF-κB and 103% in the data set with ISRE. Also, the “MTT % Viability” value in the data set on THP-1 cells is listed as 97.4%.
The matching figures for `COc1cc(NS(=O)(=O)c2ccc(N)cc2)c(OC)cc1Cl` [Compound 18, 4-Amino-N-(4-chloro-2,5-dimethoxyphenyl)benzenesulfonamide]: 101%, 103% and 96.0%.
As to `COc1cc(NS(=O)(=O)c2ccc(C#N)cc2)c(OC)cc1Cl` [Compound 19, N-(4-chloro-2,5-dimethoxyphenyl)-4-cyanobenzenesulfonamide], the figures for the activity at 5 µM in the data set with NF-κB and with ISRE were 97% and 106%, respectively. The “MTT % Viability” value in the data set on THP-1 cells came out at 102.9%.
Turning to `COc1cc(NS(=O)(=O)c2ccc(CNC(=O)OC(C)(C)C)cc2)c(OC)cc1Cl` [Compound 20, tert-butyl (4-(N-(4-chloro-2,5-dimethoxyphenyl)sulfamoyl)benzyl) carbamate], the “NF-κB % Activation” value in the data set with NF-κB came to 100%. For the same molecule, in the data set with ISRE, the “ISRE % Activation” value worked out at 101%. Moreover, the “MTT % Viability” value in the data set with THP-1 cells worked out at 109.2%.
On to `COc1cc(NS(=O)(=O)c2ccc(CN)cc2)c(OC)cc1Cl` [Compound 21, 4-(aminomethyl)-N-(4-chloro-2,5-dimethoxyphenyl)benzenesulfonamide], for which the activity at 5 µM was 103% with NF-κB and 111% with ISRE. Besides, the “MTT % Viability” value with THP-1 cells came out at 97.0%.
The like results for `COC(=O)c1ccc(S(=O)(=O)Nc2cc(OC)c(Cl)cc2OC)cc1` [Compound 26, Methyl 4-(N-(4-chloro-2,5-dimethoxyphenyl)sulfamoyl)benzoate] were, in that order, 191%, 202% and 74.4%.
The like results for `CCCN(c1cc(OC)c(Cl)cc1OC)S(=O)(=O)c1ccc(OCC)cc1` [Compound 34, N-(4-chloro-2,5-dimethoxyphenyl)-4-ethoxy-N-propylbenzenesulfonamide] were, in that order, 227%, 199% and 71.6%.
For `CCCCN(c1cc(OC)c(Cl)cc1OC)S(=O)(=O)c1ccc(OCC)cc1` [Compound 35, N-(4-chloro-2,5-dimethoxyphenyl)-4-ethoxy-N-butylbenzenesulfonamide], the activity at 5 µM stood at 192% in the data set with NF-κB and 156% in the data set with ISRE. Besides, in the data set with THP-1 cells, the “MTT % Viability” value was determined as 77.7%.
For the molecule `CCCCCN(c1cc(OC)c(Cl)cc1OC)S(=O)(=O)c1ccc(OCC)cc1` [Compound 36, N-(4-chloro-2,5-dimethoxyphenyl)-4-ethoxy-N-pentylbenzenesulfonamide], the figures for the activity at 5 µM in the data set on NF-κB and in the data set on ISRE were 135% and 105%, respectively. In the data set on THP-1 cells, the “MTT % Viability” value stood at 72.9%.
As for `CCCCCCN(c1cc(OC)c(Cl)cc1OC)S(=O)(=O)c1ccc(OCC)cc1` [Compound 37, N-(4-chloro-2,5-dimethoxyphenyl)-4-ethoxy-N-hexylbenzenesulfonamide], the activity at 5 µM in the data set on NF-κB came out at 81%; in the data set with ISRE, 99%. The “MTT % Viability” value with THP-1 cells was 95.2%.
The like results for `CCCCCCCN(c1cc(OC)c(Cl)cc1OC)S(=O)(=O)c1ccc(OCC)cc1` [Compound 38, N-(4-chloro-2,5-dimethoxyphenyl)-4-ethoxy-N-heptylbenzenesulfonamide] were, in that order, 108%, 95% and 90.4%.
On to `CCOc1ccc(S(=O)(=O)N(CCCN)c2cc(OC)c(N=[N+]=[N-])cc2OC)cc1` [Compound 63, N-(3-aminopropyl)-N-(4-azido-2,5-dimethoxyphenyl)-4-ethoxybenzenesulfonamide], for which the “MTT % Viability” value in the data set with THP-1 cells was 68.9%.

Source of the values: patent publication US20220305121A1, “N-ARYL SULFONAMIDE DERIVATIVES AS VACCINE ADJUVANT” (The Regents of the University of California, priority 2019, published 2022).
